“Also recorded” adds a separate entry of the source. Where two headings read alike, the source gives them in different places.

In assay [1] the test system is bone marrow derived phagocytes exposed to Mtb. In kind it is cell-based, mouse.
The test system of assay [2] is stimulated human T lymphocytes. Description: Cytokine production by anti-CD3/CD28 stimulated human mononuclear cells with Kv1.3 and IDE inhibitors. In kind it is cell-based. As to the method: Peripheral blood was obtained from two healthy donors. Mononuclear cells were purified by Ficol-Hypaque centrifugation. […] The culture supernatants were collected 24 hours post-treatment and were assayed for eleven Th1/Th2 cytokines using a multiplex system (Bender, Cat. No. BMS810FF): IL-1beta, IL-2, IL-4, IL-5, IL-6, IL-8, IL-10, IL-12p70, TNF-alpha, TNF-beta, IFN-gamma.

For another assay, the system named is PBMCs. Description: Cytokine secretion of naïve and stimulated PBMCs. In kind it is cell-based, human. The following applies: for TH2 and TH1 cytokines secretion in activated PBMCs: anti-CD3 or anti-CD3/anti-CD28 stimulation. As to the method:
FIG. 3A and FIG. 3B illustrate that mitogen stimulation enhances FITC-PIF binding to T and B cell populations. PBMC were cultured with PHA for 24 h. Binding of FITC-PIF to different PBMC populations was determined by two color flow cytometry. Binding was low (<10% in unstimulated cells a, upper panel from left to right) CD4+, CD8+, NK, (CD56+) and B (CD19+) cells. However, it led to a ˜30-fold increase in binding to b (lower panel from left to right), CD4+, CD8+ and B (CD19+) cells. Binding was unchanged for NK cells, even after a 72 hour incubation period. FIG. 3C, FIG. 3D, FIG. 3E, and FIG. 3F illustrate that sPIF promotes TH2/TH1 cytokine bias in stimulated PBMCs. […] FIG. 3B illustrates sPIF (50 nM); FIG. 3C illustrates PIFscr (50 nM); FIG. 3D illustrates sPIF (50 nM)+anti-CD3 mAb; FIG. 3E illustrates PIFscr+anti-CD3 mAb. sPIF affected variably stimulated PBMCs individual cytokines secretion. In contrast, some cytokine secretion in naïve PBMCs decreased (not shown). […] Cytokine secretion determined by Luminex 10-plex. […] PBMCs were cultured in the presence of anti-CD3/anti-CD28-Mab for 24-48 hours. […] The effect on PBMCs at 48 hours was less pronounced (data not shown). At the end of experiment mRNA was extracted and global gene expression was analyzed by using an Affymetrix chip.

The test system of assay [3] is THP-1 cells.
The test system of a further assay is Nos2. The following applies: mouse, in vivo.
The next assay relates to ApoE−/− mice. Nature of the assay: Atherosclerosis model, ApoE−/− mice fed high fat Western diet. In kind it is in vivo, mouse. As to the method:
Aortic root and arch sections were stained with HE. The mean atherosclerotic area (μm2)±SEM was quantified.
ORO histology was employed to identify lipids in the mouse atherosclerotic plaque. Lipids were quantified by red signal intensity percentage area of plaque±SEM. […] All animals still had very high cholesterol levels and to obtain a reading, the plasma was diluted to 1:10. After analysis, no statistical difference was seen between any group using one way ANOVA paired with Tukey's Multiple Comparison Test. […]
Treatments were administered via 150 μL i.p. injection every 3rd day, for a total of 7 weeks.

The test system of another assay is Ca++ mobilization. As to the method: FITC-sPIF binding to PBMCs subsets was determined using flow cytometry. sPIF's effect on Ca++ mobilization was tested by Flex station.
A short description of assay [4]: Surface Plasmon Resonance, LPS binding to PIF-labeled sensor surface. Set-up: species or system E. coli. The following applies: LPS 5, 25 and 100 μM, immobilized peptide, preliminary results.
Method: Surface Plasmon Resonance spectroscopy (SPR) was used to evaluate LPS and LPS receptors binding (TLR4-MD2 and CD14) to the PIF-labeled sensor surface. Two chemotypes of LPS (From E. coli O55:B5 and E. coli EH100) at 3 concentrations (5, 25 and 100 μM) were tested.
Assay [5] relates to RAW (Macrophage cell line). Conditions: PIF 200 nM, 2 or 5 day incubation, no LPS. As to the method:
(§1) Mouse splenocytes were used for mixed Lymphocytes Reaction (MLR). Balb/c cells were cultured in the presence of irradiated C57/Bl cells for 4 days. […] Cell proliferation was tested by H3 Tymidine uptake assay. […] One representative experiment is shown out of four performed. […] Anti-CD3 antibodies were added to the medium for T cell activation. Cell proliferation was tested by H3 Thymidine uptake. […] At day 7, 100 ng/ml IFN γ was added. After 10 days cells were analyzed by FACS analysis using anti-B7-H1 antibodies. FIG. 2D illustrates murine macrophages were cultured with GM-CSF for 10 days. IFN-γ was added to the culture at day 7 for cell activation. […] This is relevant since B7-H1 is one of the newly defined inhibitory B7 family molecules. It is known that IFN gamma potently stimulates B7-H1 expression on APC. […] THP-1 cells were incubated for 48 hours, then were stimulated with […] and collected at 0, 1, 8, 12 and 24 hour time points. […] The 8 hour time point was selected to allow time for cell stimulation. The gene regulation comes quickly and the selected time point allows enough time for stimulation and not over/under. […] In the last 24 hours of the experiment, LPS was added to the culture for cell activation. Greiss reagent test was performed to detect NO secretion to the supernatant.
In the last 24 hours of the experiment, LPS was added to the culture for cell activation. […]

The test system of a further assay is C57bl6 mice. The following applies: 0.3 nmol/g i.p. On the procedure: Peritonitis was induced by injecting 3 ml 4% thioglycolate i.p. and after 20 hours, the mice were anaesthetized and the peritoneal cavity was flushed with 5 ml sterile PBS. Subsequently, monocytes/macrophages were quantified with F4/80 and CD11b in flow cytometry.
Peritonitis was induced by injecting 3 ml 4% thioglycolate i.p. and after 20 hours, the mice were anaesthetized and the peritoneal cavity was flushed with 5 ml sterile PBS. Subsequently, monocytes and macrophages were quantified with F4/80 and CD11b in flow cytometry.

A further assay relates to B7-H1. The following applies: 200 nM PIF, 10 days, IFN γ at day 7. On the procedure:
as §1

For assay [6], the system named is THP-1 cells. On the procedure: as §1
The source holds these as a separate data set.

The subject of another assay is T cells. Conditions: monocytes 10 days with 200 nM PIF, co-culture 4 days, anti-CD3. As to the method:
as §1

Assay [7] has as its system Balb/c splenocytes with irradiated C57/Bl cells. The following applies: 4 days; 150 nM and 200 nM PIF significant. On the procedure: as §1

Consider IFNγ: phagocyte-activating cytokine, for which, in [1], the “IL-1a, IL-1b, TNFa, MIP-1alpha and KC response to Mtb, PIF and anti-Kv1.3, effect of IFN” value is recorded as “lost”; the “MCP-1, IL-6 and IL-5 response to Mtb and PIF, effect of IFN” value was “stopped”.

On to MVRIKPGSANKPSDD [PIF], for which, in assay [1], the “MCP-1, IL-6 and IL-5 induction by Mtb, effect of PIF” value is on record as “further induced; also recorded: augmented”; the “MCP-1 secretion by isolated macrophages” value was “increased”; the “MIG and IP10 chemokines, effect of PIF” value is reported as “modestly augmented”; the “TNF, IL-1a, IL-1b, IL-6, MCP-1, MIP1a and KC response of BMDCs to Mtb” value is given as “increased”. Moreover, in assay [1], the “TNF, IL-1α, IL-1β, MIP1α and KC induction by Mtb, effect of PIF” value is reported as “augmented”; the “VEGF and FGFb (growth factors) in BMDCs exposed to Mtb” value is reported as “augmented”; the “VEGF and FGFβ induction by Mtb, effect of PIF” value was “promoted; also recorded: augmented”. The “Th1/Th2 cytokine analytes, PIF alone” value in assay [2] (PIF 1, 10 and 50 nM, no stimulation, 24 hours) is “no effect”. Also, the “binding to intracellular insulin degrading enzyme (IDE)” value in assay [2] (concluded from cell based assay using specific IDE inhibitor) is on record as “bind”. The “TH2 and TH1 cytokines secretion in activated PBMCs” value in the assay with PBMCs is recorded as “increased”. Besides, the “TH2 and TH1 cytokines secretion in activated PBMCs” value in the assay with PBMCs (listed as sPIF) was “promotes”. For the same substance, the “TH1 (TNF-α, IL2) cytokines in naïve PBMCs” value in the assay with PBMCs (naïve PBMCs) was “reduces”. For the same substance, the “cytokine secretion, PIF alone” value in the assay on PBMCs (without TCR stimulation, 24-48 hours) was “no significant promoting effect”. For the same substance, the “MCP-1 induced transmigration of THP-1 cells” value with THP-1 cells [3] (PIF 1 μM) is on record as “significantly reduced”. Further, the “MCP-1 induced transmigration of THP-1 cells” value in the assay on THP-1 cells [3] (PIF 10 μM) was “significantly reduced”. Also, the “elevation of Nos2 expression in liver of semi-allogenic BMT mice” value in the assay on Nos2 is on record as “completely prevented”. Moreover, the “anti-CD3-Mab-stimulated proliferation and mixed lymphocyte reaction” value with human PBMCs is reported as “blocked”. Also, in the assay on ApoE−/− mice (PIF 0.1 mg/kg/day, i.p.), the “reduction of plaque area in the aortic root compared to PBS control” value is reported as 30%. Besides, the “plaque area of the aortic arch compared to both doses of scrPIF” value in the assay with ApoE−/− mice (PIF 1 mg/kg/day) was “reduction”. For the same substance, in the assay with ApoE−/− mice (PIF 1 mg/kg/day, i.p.), the “reduction of plaque area in the aortic root compared to PBS control” value is 46% and the “reduction of plaque area of the aortic arch compared to PBS control” value turned out to be 43%. Moreover, the “plaque area in the aortic root compared to both doses of scrPIF” value in the assay on ApoE−/− mice (higher dose of PIF (1 mg/kg/day)) is “statistically significantly reduced”. For the same substance, in the assay with ApoE−/− mice (mouse, in vivo), the “CD68 in the aortic root and arch” value is on record as “reduces”; the “MCP-1 in the aortic root and arch” value is given as “reduces”; the “VCAM-1 in the aortic root and arch” value was “reduces”; the “atherosclerosis formation (protective effect)” value is on record as “reduces”. For the same substance, the “lipids (Oil Red O staining) in the aortic root and arch” value in the assay on ApoE−/− mice (mouse, in vivo) is reported as “reduces”. Besides, in the assay with Ca++ mobilization, the “action through Ca++ mobilization” value is given as “does not act through Ca++ mobilization”. The “binding to LPS chemotypes (SPR)” value in assay [4] was “no apparent LPS binding”. In assay [5], the “baseline NO” value is “did not affect”. Also, the “MCP-1 induced monocyte migration in mouse peritonitis model” value in the assay on C57bl6 mice is listed as “inhibits”. Further, in the assay with B7-H1, the B7-H1 expression entry is “up-regulates”. For the same substance, the B7-H1 expression entry in the assay with B7-H1 (listed as sPIF) was “significantly increased”. Besides, the “VCAM-1, IL-12b and IFNg in THP-1 cells” value in the assay on THP-1 cells [6] is recorded as “reduced”. In addition, the “T cell proliferation with PIF-treated monocytes” value with T cells is given as “reduced proliferation but did not block it”. Also, the “allogenic lymphocyte proliferation in MLR” value in [7] is given as “reduce cells proliferation in a dose dependent manner”.

The values above are taken from patent publication US10953071B2, “Compositions and methods for treatment of intracellular damage and bacterial infection” (priority 2011, dated 2021).
